Results as given in PubChem BioAssay (NCI).
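GI50: concentration for 50% inhibition of growth. TGI marks complete inhibition of growth.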

Key:
Assay in all cases: growth of human tumour cells (NCI), 384-well format
DU-145 prostate = system: DU-145 prostate
T-47D breast = system: T-47D breast
A549 NSCLC = system: A549 NSCLC
HOP-62 NSCLC = system: HOP-62 NSCLC
UO-31 renal = system: UO-31 renal
PC-3 prostate = system: PC-3 prostate
RPMI-8226 leukemia = system: RPMI-8226 leukemia
MCF7 breast = system: MCF7 breast
KM12 colon = system: KM12 colon
HT29 colon = system: HT29 colon
SW-620 colon = system: SW-620 colon
UACC-257 melanoma = system: UACC-257 melanoma
COLO 205 colon = system: COLO 205 colon
NCI-H522 lung = system: NCI-H522 lung
OVCAR-3 ovarian = system: OVCAR-3 ovarian
NCI/ADR-RES ovarian = system: NCI/ADR-RES ovarian
HL-60(TB) leukemia = system: HL-60(TB) leukemia
NCI-H226 lung = system: NCI-H226 lung
RXF 393 renal = system: RXF 393 renal
SK-MEL-28 melanoma = system: SK-MEL-28 melanoma
OVCAR-8 ovarian = system: OVCAR-8 ovarian
MDA-MB-468 breast = system: MDA-MB-468 breast
IGROV1 ovarian = system: IGROV1 ovarian
786-0 renal = system: 786-0 renal
SF-268 CNS = system: SF-268 CNS
MDA-MB-231 breast = system: MDA-MB-231 breast
SNB-19 CNS = system: SNB-19 CNS
MOLT-4 leukemia = system: MOLT-4 leukemia
HCC-2998 colon = system: HCC-2998 colon
SN12C renal = system: SN12C renal
NCI-H23 lung = system: NCI-H23 lung
EKVX NSCLC = system: EKVX NSCLC
NCI-H460 NSCLC = system: NCI-H460 NSCLC
CAKI-1 renal = system: CAKI-1 renal
HOP-92 NSCLC = system: HOP-92 NSCLC
HCT-116 colon = system: HCT-116 colon
MALME-3M melanoma = system: MALME-3M melanoma
BT-549 breast = system: BT-549 breast
TK-10 renal = system: TK-10 renal
LOX IMVI melanoma = system: LOX IMVI melanoma
HS 578T breast = system: HS 578T breast
MDA-MB-435 melanoma = system: MDA-MB-435 melanoma
U251 glioblastoma = system: U251 glioblastoma
SF-539 CNS = system: SF-539 CNS
CCRF-CEM leukemia = system: CCRF-CEM leukemia
A498 renal = system: A498 renal
SR leukemia = system: SR leukemia
SNB-75 CNS = system: SNB-75 CNS
ACHN renal = system: ACHN renal
SK-OV-3 ovarian = system: SK-OV-3 ovarian
NCI-H322M lung = system: NCI-H322M lung
HCT-15 colon = system: HCT-15 colon
K-562 leukemia = system: K-562 leukemia
UACC-62 melanoma = system: UACC-62 melanoma
SK-MEL-5 melanoma = system: SK-MEL-5 melanoma
OVCAR-4 ovarian = system: OVCAR-4 ovarian
SF-295 CNS = system: SF-295 CNS
M14 melanoma = system: M14 melanoma

## CC(C)(O)CS(=O)(=O)Nc1ccc2c(c1)CCN(C(=O)COc1cccnc1)C2
DU-145 prostate
  GI50: 22.6 nM
  TGI: 45.9 nM
T-47D breast
  GI50: < 10 nM
  TGI: < 10 nM
A549 NSCLC
  GI50: 234 nM
  TGI: 494 nM
HOP-62 NSCLC
  GI50: 25 nM
  TGI: 52.2 nM
UO-31 renal
  GI50: 19.5 nM
  TGI: 35.7 nM
PC-3 prostate
  GI50: 10.8 nM
  TGI: 23.2 nM
RPMI-8226 leukemia
  GI50: 43.6 nM
  TGI: 163 nM
MCF7 breast
  GI50: 23.1 nM
  TGI: 48 nM
KM12 colon
  GI50: 17.3 nM
  TGI: 43.2 nM
HT29 colon
  GI50: 36 nM
  TGI: 102 nM
SW-620 colon
  GI50: < 10 nM
  TGI: < 10 nM
UACC-257 melanoma
  GI50: 143 nM
  TGI: 590 nM
COLO 205 colon
  GI50: < 10 nM
  TGI: < 10 nM
NCI-H522 lung
  GI50: < 10 nM
  TGI: < 10 nM
OVCAR-3 ovarian
  GI50: < 10 nM
  TGI: 12.2 nM
NCI/ADR-RES ovarian
  GI50: 145 nM
  TGI: 279 nM
HL-60(TB) leukemia
  GI50: < 10 nM
  TGI: < 10 nM
NCI-H226 lung
  GI50: 871 nM
  TGI: 26000 nM
RXF 393 renal
  GI50: 18.3 nM
  TGI: 35.6 nM
SK-MEL-28 melanoma
  GI50: 22.8 nM
  TGI: 43.4 nM
OVCAR-8 ovarian
  GI50: < 10 nM
  TGI: < 10 nM
MDA-MB-468 breast
  GI50: 21.7 nM
  TGI: 39.7 nM
IGROV1 ovarian
  GI50: 19 nM
  TGI: 34.2 nM
786-0 renal
  GI50: 18.6 nM
  TGI: 34 nM
SF-268 CNS
  GI50: 20 nM
  TGI: 35 nM
MDA-MB-231 breast
  GI50: 43.5 nM
  TGI: 135 nM
SNB-19 CNS
  GI50: 14.9 nM
  TGI: 29.6 nM
MOLT-4 leukemia
  GI50: < 10 nM
  TGI: < 10 nM
HCC-2998 colon
  GI50: 21.7 nM
  TGI: 42.1 nM
SN12C renal
  GI50: < 10 nM
  TGI: < 10 nM
NCI-H23 lung
  GI50: 29.1 nM
  TGI: 78.7 nM
EKVX NSCLC
  GI50: 46.4 nM
  TGI: 164 nM
NCI-H460 NSCLC
  GI50: 239 nM
  TGI: 435 nM
CAKI-1 renal
  GI50: 20.4 nM
  TGI: 37.9 nM
HOP-92 NSCLC
  GI50: 121 nM
  TGI: 320 nM
HCT-116 colon
  GI50: < 10 nM
  TGI: < 10 nM
MALME-3M melanoma
  GI50: 83.5 nM
  TGI: 258 nM
BT-549 breast
  GI50: 21.6 nM
  TGI: 40.1 nM
TK-10 renal
  GI50: 32.3 nM
  TGI: 92 nM
LOX IMVI melanoma
  GI50: 33.1 nM
  TGI: 170 nM
HS 578T breast
  GI50: 17.3 nM
  TGI: 32.4 nM
MDA-MB-435 melanoma
  GI50: 20 nM
  TGI: 34.6 nM
U251 glioblastoma
  GI50: < 10 nM
  TGI: 12.8 nM
SF-539 CNS
  GI50: < 10 nM
  TGI: < 10 nM
CCRF-CEM leukemia
  GI50: < 10 nM
  TGI: < 10 nM
A498 renal
  GI50: 390 nM
  TGI: 3610 nM
SR leukemia
  GI50: 29 nM
  TGI: 60.4 nM
SNB-75 CNS
  GI50: 17.8 nM
  TGI: 32.6 nM
ACHN renal
  GI50: 37 nM
  TGI: 127 nM
SK-OV-3 ovarian
  GI50: 10 nM
  TGI: 23.6 nM
NCI-H322M lung
  GI50: 10.9 nM
  TGI: 38.9 nM
HCT-15 colon
  GI50: 33.9 nM
  TGI: 108 nM
K-562 leukemia
  GI50: < 10 nM
  TGI: 10.9 nM
UACC-62 melanoma
  GI50: 31.3 nM
  TGI: 74.9 nM
SK-MEL-5 melanoma
  GI50: 20.8 nM
  TGI: 40.3 nM
OVCAR-4 ovarian
  GI50: 31.3 nM
  TGI: 78.2 nM
SF-295 CNS
  GI50: 29.5 nM
  TGI: 74.7 nM
M14 melanoma
  GI50: 19.1 nM
  TGI: 33.6 nM
